Results taken from patent US9695155B2, “Herbicidal substituted pyrimidinyloxy benzene compounds” (E. I. DU PONT DE NEMOURS AND COMPANY, priority 2013, dated 2017).

Experiments:
giant foxtail [1] = test: Test C postemergence; assay type: in vivo, Setaria faberii
In short: (§1)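 Visual ratings on a 0–100 scale (100 = complete control) were made versus untreated controls after 13–15 greenhouse days. Chemicals in a surfactant-containing non-phytotoxic solvent were applied either preemergence to seeds in loam–sand soil or postemergence to 1- to 4-leaf plants 2–18 cm tall.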

barnyardgrass = test: Test C postemergence; assay type: in vivo, Echinochloa crus-galli
In short: as §1

yellow nutsedge = test: Test C postemergence; assay type: in vivo, Cyperus esculentus
In short: as §1

blackgrass = test: Test C postemergence; assay type: in vivo, Alopecurus myosuroides
In short: as §1

corn [2] = test: Test C preemergence; assay type: in vivo, Zea mays
In short: as §1

giant foxtail [3] = test: Test A postemergence; assay type: in vivo, Setaria faberii; settings: 0 to 100 scale where 0 is no effect and 100 is complete control
In short: (§2)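 Pre- and postemergence greenhouse screen. Soil: loam + sand. Spray carrier: solvent mixture, non-phytotoxic, with surfactant. Post timing at 1–2 leaves, height 2–10 cm. Readout: visual injury on a 0–100 scale roughly 10 days after application, untreated plants as reference.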

pigweed = test: Test C preemergence; assay type: in vivo, Amaranthus retroflexus
In short: as §1

lambsquarters = test: Test C preemergence; assay type: in vivo, Chenopodium album
In short: as §1

large (Lg) crabgrass = test: Test C preemergence; assay type: in vivo, Digitaria sanguinalis
In short: as §1

corn [4] = test: Test A postemergence; assay type: in vivo, Zea mays; settings: 0 to 100 scale where 0 is no effect and 100 is complete control
In short: as §2

corn [5] = test: Test C postemergence; assay type: in vivo, Zea mays
In short: as §1

wheat, winter = test: Test C postemergence; assay type: in vivo, Triticum aestivum
In short: as §1

kochia = test: Test C postemergence; assay type: in vivo, Kochia scoparia
In short: as §1

[6] = 16 g ai/ha, postemergence, 0 is no effect, 100 is complete control
[7] = 125 g ai/ha, postemergence, visual rating, scale 0 to 100 (0 no effect, 100 complete control)
[8] = Postemergence, 62 g ai/ha, scale 0 to 100 (0 no effect, 100 complete control)
[9] = Postemergence, 31 g ai/ha, scale 0 to 100 (0 no effect, 100 complete control), 13 to 15 days
[10] = 16 g ai/ha, preemergence, scale 0 to 100 (0 no effect, 100 complete control)
[11] = 62 g ai/ha, preemergence, scale 0 (no effect) to 100 (complete control)
[12] = 125 g ai/ha, preemergence, scale 0 (no effect) to 100 (complete control)
[13] = Preemergence, 31 g ai/ha, scale 0 to 100, 0 no effect, 100 complete control

## FC(F)(F)Sc1cnn(-c2ccccc2Oc2ncc(Cl)cn2)c1 [Compound 132, 5-chloro-2-[2-[4-(trifluoromethylthio)-1H-pyrazol-1-yl]phenoxy]pyrimidine]
Giant foxtail [1]; Setaria faberi, post-emergence, 16 g ai/ha, postemergence, 0 is no effect, 100 is complete control, read-out: Plant response rating (0 to 100), Foxtail, Giant
  pest or weed control at 16 g/ha: 0%
Giant foxtail [1]; Setaria faberi, post-emergence, 125 g ai/ha, postemergence, visual rating, scale 0 to 100 (0 no effect, 100 complete control), read-out: Plant response rating, Foxtail, Giant
  pest or weed control at 125 g/ha: 10%
Giant foxtail [1]; Setaria faberi, post-emergence, Postemergence, 62 g ai/ha, scale 0 to 100 (0 no effect, 100 complete control), read-out: Plant response rating, Foxtail, Giant
  pest or weed control at 62 g/ha: 5%
barnyardgrass; Echinochloa crus-galli, post-emergence, 16 g ai/ha, postemergence, 0 is no effect, 100 is complete control, read-out: Plant response rating (0 to 100), Barnyardgrass
  pest or weed control at 16 g/ha: 0%
barnyardgrass; Echinochloa crus-galli, post-emergence, 125 g ai/ha, postemergence, visual rating, scale 0 to 100 (0 no effect, 100 complete control), read-out: Plant response rating, Barnyardgrass
  pest or weed control at 125 g/ha: 5%
barnyardgrass; Echinochloa crus-galli, post-emergence, Postemergence, 31 g ai/ha, scale 0 to 100 (0 no effect, 100 complete control), 13 to 15 days, read-out: Plant response rating, Barnyardgrass
  pest or weed control at 31 g/ha: 0%
barnyardgrass; Echinochloa crus-galli, post-emergence, Postemergence, 62 g ai/ha, scale 0 to 100 (0 no effect, 100 complete control), read-out: Plant response rating, Barnyardgrass
  pest or weed control at 62 g/ha: 5%
Yellow nutsedge; Cyperus, post-emergence, 16 g ai/ha, postemergence, 0 is no effect, 100 is complete control, read-out: Plant response rating (0 to 100), Nutsedge, Yellow
  pest or weed control at 16 g/ha: 0%
Yellow nutsedge; Cyperus, post-emergence, 125 g ai/ha, postemergence, visual rating, scale 0 to 100 (0 no effect, 100 complete control), read-out: Plant response rating, Nutsedge, Yellow
  pest or weed control at 125 g/ha: 10%
Yellow nutsedge; Cyperus, post-emergence, Postemergence, 62 g ai/ha, scale 0 to 100 (0 no effect, 100 complete control), read-out: Plant response rating, Nutsedge, Yellow
  pest or weed control at 62 g/ha: 0%
blackgrass; Alopecurus myosuroides, post-emergence, 16 g ai/ha, postemergence, 0 is no effect, 100 is complete control, read-out: Plant response rating (0 to 100), Blackgrass
  pest or weed control at 16 g/ha: 5%
blackgrass; Alopecurus myosuroides, post-emergence, 125 g ai/ha, postemergence, visual rating, scale 0 to 100 (0 no effect, 100 complete control), read-out: Plant response rating, Blackgrass
  pest or weed control at 125 g/ha: 5%
blackgrass; Alopecurus myosuroides, post-emergence, Postemergence, 31 g ai/ha, scale 0 to 100 (0 no effect, 100 complete control), 13 to 15 days, read-out: Plant response rating, Blackgrass
  pest or weed control at 31 g/ha: 5%
blackgrass; Alopecurus myosuroides, post-emergence, Postemergence, 62 g ai/ha, scale 0 to 100 (0 no effect, 100 complete control), read-out: Plant response rating, Blackgrass
  pest or weed control at 62 g/ha: 10%
Corn [2]; Zea mays, pre-emergence, 16 g ai/ha, preemergence, scale 0 to 100 (0 no effect, 100 complete control), read-out: Corn plant response rating
  plant injury at 16 g/ha: 0%
Corn [2]; Zea mays, pre-emergence, 62 g ai/ha, preemergence, scale 0 (no effect) to 100 (complete control), read-out: Corn plant response rating
  plant injury at 62 g/ha: 20%
Corn [2]; Zea mays, pre-emergence, 125 g ai/ha, preemergence, scale 0 (no effect) to 100 (complete control), read-out: Corn plant response rating
  plant injury at 125 g/ha: 35%
Corn [2]; Zea mays, pre-emergence, Preemergence, 31 g ai/ha, scale 0 to 100, 0 no effect, 100 complete control
  Corn plant response rating (crop injury, 0 = no effect, 100 = complete kill) at 31 g/ha: 10%
Giant foxtail [3]; Setaria faberi, post-emergence, 240 h, 125 g ai/ha, read-out: Foxtail, Giant plant response rating
  pest or weed control at 125 g/ha: 60%
Giant foxtail [3]; Setaria faberi, post-emergence, 240 h, 500 g ai/ha, read-out: Plant response rating, Foxtail, Giant
  pest or weed control at 500 g/ha: 90%
pigweed; Amaranthus retroflexus, pre-emergence, 16 g ai/ha, preemergence, scale 0 to 100 (0 no effect, 100 complete control), read-out: Pigweed plant response rating
  pest or weed control at 16 g/ha: 30%
pigweed; Amaranthus retroflexus, pre-emergence, 62 g ai/ha, preemergence, scale 0 (no effect) to 100 (complete control), read-out: Pigweed plant response rating
  pest or weed control at 62 g/ha: 70%
pigweed; Amaranthus retroflexus, pre-emergence, 125 g ai/ha, preemergence, scale 0 (no effect) to 100 (complete control), read-out: Pigweed plant response rating
  pest or weed control at 125 g/ha: 100%
pigweed; Amaranthus retroflexus, pre-emergence, Preemergence, 31 g ai/ha, scale 0 to 100, 0 no effect, 100 complete control, read-out: Plant response rating, Pigweed
  pest or weed control at 31 g/ha: 45%
lambsquarters; Chenopodium album, pre-emergence, 16 g ai/ha, preemergence, scale 0 to 100 (0 no effect, 100 complete control), read-out: Lambsquarters plant response rating
  pest or weed control at 16 g/ha: 75%
lambsquarters; Chenopodium album, pre-emergence, 62 g ai/ha, preemergence, scale 0 (no effect) to 100 (complete control), read-out: Lambsquarters plant response rating
  pest or weed control at 62 g/ha: 100%
lambsquarters; Chenopodium album, pre-emergence, 125 g ai/ha, preemergence, scale 0 (no effect) to 100 (complete control), read-out: Lambsquarters plant response rating
  pest or weed control at 125 g/ha: 100%
lambsquarters; Chenopodium album, pre-emergence, Preemergence, 31 g ai/ha, scale 0 to 100, 0 no effect, 100 complete control, read-out: Plant response rating, Lambsquarters
  pest or weed control at 31 g/ha: 55%
Large (Lg) crabgrass; Digitaria sanguinalis, pre-emergence, 16 g ai/ha, preemergence, scale 0 to 100 (0 no effect, 100 complete control), read-out: Crabgrass, Large plant response rating
  pest or weed control at 16 g/ha: 65%
Large (Lg) crabgrass; Digitaria sanguinalis, pre-emergence, 62 g ai/ha, preemergence, scale 0 (no effect) to 100 (complete control), read-out: Crabgrass, Large plant response rating
  pest or weed control at 62 g/ha: 98%
Large (Lg) crabgrass; Digitaria sanguinalis, pre-emergence, 125 g ai/ha, preemergence, scale 0 (no effect) to 100 (complete control), read-out: Crabgrass, Large plant response rating
  pest or weed control at 125 g/ha: 100%
Large (Lg) crabgrass; Digitaria sanguinalis, pre-emergence, Preemergence, 31 g ai/ha, scale 0 to 100, 0 no effect, 100 complete control, read-out: Plant response rating, Crabgrass, Large
  pest or weed control at 31 g/ha: 85%
Corn [4]; Zea mays, post-emergence, 240 h, 125 g ai/ha, read-out: Corn plant response rating
  plant injury at 125 g/ha: 20%
Corn [4]; Zea mays, post-emergence, 240 h, 500 g ai/ha
  Corn plant response rating (crop injury, 0 = no effect, 100 = complete kill) at 500 g/ha: 50%
Corn [5]; Zea mays, post-emergence, 16 g ai/ha, postemergence, 0 is no effect, 100 is complete control, read-out: Plant response rating (0 to 100), Corn
  plant injury at 16 g/ha: 5%
Corn [5]; Zea mays, post-emergence, 125 g ai/ha, postemergence, visual rating, scale 0 to 100 (0 no effect, 100 complete control)
  Corn plant response rating (crop injury, 0 = no effect, 100 = complete kill) at 125 g/ha: 10%
Corn [5]; Zea mays, post-emergence, Postemergence, 62 g ai/ha, scale 0 to 100 (0 no effect, 100 complete control)
  Corn plant response rating (crop injury, 0 = no effect, 100 = complete kill) at 62 g/ha: 5%
wheat, winter; Triticum aestivum, post-emergence, 16 g ai/ha, postemergence, 0 is no effect, 100 is complete control, read-out: Plant response rating (0 to 100), Wheat
  plant injury at 16 g/ha: 0%
wheat, winter; Triticum aestivum, post-emergence, 125 g ai/ha, postemergence, visual rating, scale 0 to 100 (0 no effect, 100 complete control), read-out: Plant response rating, Wheat
  plant injury at 125 g/ha: 5%
wheat, winter; Triticum aestivum, post-emergence, Postemergence, 62 g ai/ha, scale 0 to 100 (0 no effect, 100 complete control), read-out: Plant response rating, Wheat
  plant injury at 62 g/ha: 0%
kochia; Bassia scoparia, post-emergence, 16 g ai/ha, postemergence, 0 is no effect, 100 is complete control, read-out: Plant response rating (0 to 100), Kochia
  pest or weed control at 16 g/ha: 10%
kochia; Bassia scoparia, post-emergence, 125 g ai/ha, postemergence, visual rating, scale 0 to 100 (0 no effect, 100 complete control), read-out: Plant response rating, Kochia
  pest or weed control at 125 g/ha: 95%
kochia; Bassia scoparia, post-emergence, Postemergence, 62 g ai/ha, scale 0 to 100 (0 no effect, 100 complete control), read-out: Plant response rating, Kochia
  pest or weed control at 62 g/ha: 85%

## Cc1cnc(Oc2cccc(C#N)c2-n2cc(I)cn2)nc1 [Compound 136]
Giant foxtail [1]; [6]
  Plant response rating (0 to 100), Foxtail, Giant: 5
Giant foxtail [1]; [7]
  Plant response rating, Foxtail, Giant: 10
Giant foxtail [1]; [8]
  Plant response rating, Foxtail, Giant: 5
barnyardgrass; [6]
  Plant response rating (0 to 100), Barnyardgrass: 0
barnyardgrass; [7]
  Plant response rating, Barnyardgrass: 5
barnyardgrass; [9]
  Plant response rating, Barnyardgrass: 0
barnyardgrass; [8]
  Plant response rating, Barnyardgrass: 0
Yellow nutsedge; [6]
  Plant response rating (0 to 100), Nutsedge, Yellow: 0
Yellow nutsedge; [7]
  Plant response rating, Nutsedge, Yellow: 10
Yellow nutsedge; [8]
  Plant response rating, Nutsedge, Yellow: 5
blackgrass; [6]
  Plant response rating (0 to 100), Blackgrass: 0
blackgrass; [7]
  Plant response rating, Blackgrass: 5
blackgrass; [9]
  Plant response rating, Blackgrass: 5
blackgrass; [8]
  Plant response rating, Blackgrass: 5
Corn [2]; [10]
  Corn plant response rating: 5
Corn [2]; [11]
  Corn plant response rating: 5
Corn [2]; [12]
  Corn plant response rating: 15
Corn [2]; [13]
  Plant response rating, Corn: 0
Giant foxtail [3]; 125 g ai/ha
  Foxtail, Giant plant response rating: 30
Giant foxtail [3]; 500 g ai/ha
  Plant response rating, Foxtail, Giant: 90
pigweed; [10]
  Pigweed plant response rating: 0
pigweed; [11]
  Pigweed plant response rating: 40
pigweed; [12]
  Pigweed plant response rating: 100
lambsquarters; [11]
  Lambsquarters plant response rating: 80
lambsquarters; [12]
  Lambsquarters plant response rating: 100
Large (Lg) crabgrass; [10]
  Crabgrass, Large plant response rating: 35
Large (Lg) crabgrass; [11]
  Crabgrass, Large plant response rating: 100
Large (Lg) crabgrass; [12]
  Crabgrass, Large plant response rating: 100
Large (Lg) crabgrass; [13]
  Plant response rating, Crabgrass, Large: 100
Corn [4]; 125 g ai/ha
  Corn plant response rating: 10
Corn [4]; 500 g ai/ha
  Plant response rating, Corn: 60
Corn [5]; [6]
  Plant response rating (0 to 100), Corn: 0
Corn [5]; [7]
  Plant response rating, Corn: 5
Corn [5]; [8]
  Plant response rating, Corn: 0
wheat, winter; [6]
  Plant response rating (0 to 100), Wheat: 0
wheat, winter; [7]
  Plant response rating, Wheat: 5
wheat, winter; [8]
  Plant response rating, Wheat: 5
kochia; [6]
  Plant response rating (0 to 100), Kochia: 5
kochia; [7]
  Plant response rating, Kochia: 70
kochia; [8]
  Plant response rating, Kochia: 60
